“And” between values parts separate entries of the source, which are not always exact repeats. Identical values can stand only once.
Key:
Plasmodium falciparum = experiment: Anti-malarial activity as growth inhibition of chloroquine-resistant Plasmodium falciparum; type: functional, organism-based
FM3A [1] = experiment: Cytotoxicity against FM3A cells derived from a mammary tumor in mice was evaluated.; type: functional, cell-based; details: Mus musculus
FM3A [2] = experiment: Selective toxicity against Plasmodium falciparum compared to FM3A cytotoxicity; type: functional
FM3A [3] = experiment: […] was evaluated by the percent viability of cells; type: functional, Mus musculus

SMILES	EC50 (Plasmodium falciparum; Plasmodium falciparum) [nM]	EC50 (FM3A [1]) [nM]	Ratio (FM3A [2])	Viability (FM3A [3]) [%]	EC50 (Plasmodium falciparum)
COC(=O)[C@@]12OC[C@]34[C@H]([C@@H](O)[C@@H]1O)[C@@]1(C)CC(=O)C(OC(=O)c5ccccc5)=C(C)[C@@H]1C[C@H]3OC(=O)[C@H](OC(=O)c1ccccc1)[C@@H]24	> 1000	400	–	–	–
COC(=O)[C@@]12OC[C@]34[C@H]([C@@H](O)[C@@H]1O)[C@@]1(C)CC(=O)C(OC(=O)C(N)Cc5ccccc5)=C(C)[C@@H]1C[C@H]3OC(=O)[C@H](OC(=O)C(N)Cc1ccccc1)[C@@H]24 (some centres undefined)	2800	> 15000	>5.4	–	–
CCCCCCCCCC(=O)OC1=C(C)[C@@H]2C[C@H]3OC(=O)[C@H](OC(=O)CCCCCCCCC)[C@H]4[C@]5(C(=O)OC)OC[C@]34[C@H]([C@@H](O)[C@@H]5O)[C@@]2(C)CC1=O	390	< 160	–	–	–
COC(=O)[C@@]12OC[C@]34[C@H]([C@@H](O)[C@@H]1O)[C@@]1(C)CC(=O)C(OC(C)=O)=C(C)[C@@H]1C[C@H]3OC(=O)[C@H](OC(C)=O)[C@@H]24	39	16000	410	–	–
CCCCCC(=O)OC1=C(C)[C@@H]2C[C@H]3OC(=O)[C@H](O)[C@H]4[C@]5(C(=O)OC)OC[C@]34[C@H]([C@@H](O)[C@@H]5O)[C@@]2(C)CC1=O	1000	1000	–	–	–
C/C=C(\C)C(=O)OC1=C(C)[C@@H]2C[C@H]3OC(=O)[C@H](OC(=O)/C(C)=C/C)[C@H]4[C@]5(C(=O)OC)OC[C@]34[C@H]([C@@H](O)[C@@H]5O)[C@@]2(C)CC1=O	–	> 16000	–	100	> 1000 nM and 16000 nM
COC(=O)[C@@]12OC[C@]34[C@H]([C@@H](O)[C@@H]1O)[C@@]1(C)CC(=O)C(OC(=O)/C=C/c5ccccc5)=C(C)[C@@H]1C[C@H]3OC(=O)[C@H](OC(=O)/C=C/c1ccccc1)[C@@H]24	82	< 150	–	–	–
C/C=C(/C)C(=O)OC1=C(C)[C@@H]2C[C@H]3OC(=O)[C@H](OC(=O)/C(C)=C\C)[C@H]4[C@]5(C(=O)OC)OC[C@]34[C@H]([C@@H](O)[C@@H]5O)[C@@]2(C)CC1=O	700	6000	9	–	–
CCC(=O)O[C@H]1C(=O)O[C@@H]2C[C@H]3C(C)=C(O)C(=O)C[C@]3(C)[C@H]3[C@@H](O)[C@H](O)[C@@]4(C(=O)OC)OC[C@]32[C@@H]14	29	7000	241	–	–
CCCCCC(=O)OC1=C(C)[C@@H]2C[C@H]3OC(=O)[C@H](OC(=O)CCCCC)[C@H]4[C@]5(C(=O)OC)OC[C@]34[C@H]([C@@H](O)[C@@H]5O)[C@@]2(C)CC1=O	98	< 170	–	–	–
CCCCCCCCCCCCCCCC(=O)OC1=C(C)[C@@H]2C[C@H]3OC(=O)[C@H](OC(=O)CCCCCCCCCCCCCCC)[C@H]4[C@]5(C(=O)OC)OC[C@]34[C@H]([C@@H](O)[C@@H]5O)[C@@]2(C)CC1=O	16000	–	–	89.9	–
COC(=O)[C@@]12OC[C@]34[C@H]([C@@H](O)[C@@H]1O)[C@@]1(C)CC(=O)C(OC(=O)C(N)C(C)C)=C(C)[C@@H]1C[C@H]3OC(=O)[C@H](OC(=O)C(N)C(C)C)[C@@H]24 (some centres undefined)	570	> 15000	>26	–	–
CCCCCCCCCC(=O)OC1=C(C)[C@@H]2C[C@H]3OC(=O)[C@H](O)[C@H]4[C@]5(C(=O)OC)OC[C@]34[C@H]([C@@H](O)[C@@H]5O)[C@@]2(C)CC1=O	> 1000	400	–	–	–
COC(=O)[C@@]12OC[C@]34[C@H]([C@@H](O)[C@@H]1O)[C@@]1(C)CC(=O)C(OC(=O)C(C)N)=C(C)[C@@H]1C[C@H]3OC(=O)[C@H](OC(=O)C(C)N)[C@@H]24 (some centres undefined)	1000	> 16000	>16	–	–
CCC(=O)OC1=C(C)[C@@H]2C[C@H]3OC(=O)[C@H](OC(=O)CC)[C@H]4[C@]5(C(=O)OC)OC[C@]34[C@H]([C@@H](O)[C@@H]5O)[C@@]2(C)CC1=O	35	6100	174	–	–
COC(=O)[C@@]12OC[C@]34[C@H]([C@@H](O)[C@@H]1O)[C@@]1(C)CC(=O)C(O)=C(C)[C@@H]1C[C@H]3OC(=O)[C@H](OC(C)=O)[C@@H]24 [BRUCEINE B]	24	8000	333	–	–
COC(=O)[C@@]12OC[C@]34[C@H]([C@@H](O)[C@@H]1O)[C@@]1(C)CC(=O)C(O)=C(C)[C@@H]1C[C@H]3OC(=O)[C@H](O)[C@@H]24 [BRUCEOLIDE]	1700	> 21000	>12.3	–	–

From ChEMBL document CHEMBL1130760, “Anti-malarial activities of acylated bruceolide derivatives” (Bioorg Med Chem Lett, 1998)
